How the values were obtained:
Assay in all cases: apparent dissociation constant (pKDapp, Kinobeads competition, Cheng-Prusoff corrected) (-log10 M); higher = tighter binding
Conditions in all cases: affinity matrix / lysate: Kinobeads, mixed HEK293/K-562/placenta lysate
CSNK1G2 = CSNK1G2 (UniProt P78368)
ACVRL1 = ACVRL1 (UniProt P37023)
BRD4 = BRD4 (UniProt O60885)
CAMK1D = CAMK1D (UniProt Q8IU85)
CSNK1G3 = CSNK1G3 (UniProt Q9Y6M4)
DDR2 = DDR2 (UniProt Q16832)
DYRK1B = DYRK1B (UniProt Q9Y463)
DYRK2 = DYRK2 (UniProt Q92630)
EIF2AK2 = EIF2AK2 (UniProt P19525)
EIF2AK3 = EIF2AK3 (UniProt Q9NZJ5)
LCK = LCK (UniProt P06239)
MAP4K1 = MAP4K1 (UniProt Q92918)
PAK6 = PAK6 (UniProt Q9NQU5)
PRKACB = PRKACB (UniProt P22694)
RIPK4 = RIPK4 (UniProt P57078)
RNASEL = RNASEL (UniProt Q05823)
WNK1 = WNK1 (UniProt Q9H4A3)

Measured: apparent dissociation constant (-log10 M)

Chain of DDR2 (Q16832 whole entry): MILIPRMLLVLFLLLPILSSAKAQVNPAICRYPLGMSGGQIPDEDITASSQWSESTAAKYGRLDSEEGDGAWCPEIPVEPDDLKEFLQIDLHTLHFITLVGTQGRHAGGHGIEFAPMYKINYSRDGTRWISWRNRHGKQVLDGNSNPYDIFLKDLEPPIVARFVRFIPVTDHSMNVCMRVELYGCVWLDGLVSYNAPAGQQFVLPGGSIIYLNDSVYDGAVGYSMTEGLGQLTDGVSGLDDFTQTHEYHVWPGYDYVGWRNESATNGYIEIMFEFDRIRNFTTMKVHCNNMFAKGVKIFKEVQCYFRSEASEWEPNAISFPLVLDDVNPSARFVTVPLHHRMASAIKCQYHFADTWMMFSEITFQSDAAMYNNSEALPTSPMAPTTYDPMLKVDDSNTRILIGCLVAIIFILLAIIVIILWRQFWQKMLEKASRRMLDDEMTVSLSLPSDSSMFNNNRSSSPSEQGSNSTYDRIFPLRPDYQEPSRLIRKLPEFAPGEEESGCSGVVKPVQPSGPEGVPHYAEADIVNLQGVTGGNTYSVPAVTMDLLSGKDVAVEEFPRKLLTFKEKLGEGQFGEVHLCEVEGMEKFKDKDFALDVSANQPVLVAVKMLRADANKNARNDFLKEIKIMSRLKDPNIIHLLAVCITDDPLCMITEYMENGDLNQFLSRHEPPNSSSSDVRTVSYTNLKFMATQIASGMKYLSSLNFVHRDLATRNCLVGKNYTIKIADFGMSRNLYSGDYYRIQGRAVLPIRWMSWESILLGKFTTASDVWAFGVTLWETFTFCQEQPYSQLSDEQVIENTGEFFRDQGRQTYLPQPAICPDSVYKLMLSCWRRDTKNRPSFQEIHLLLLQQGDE
Chain of EIF2AK2 (P19525 whole entry): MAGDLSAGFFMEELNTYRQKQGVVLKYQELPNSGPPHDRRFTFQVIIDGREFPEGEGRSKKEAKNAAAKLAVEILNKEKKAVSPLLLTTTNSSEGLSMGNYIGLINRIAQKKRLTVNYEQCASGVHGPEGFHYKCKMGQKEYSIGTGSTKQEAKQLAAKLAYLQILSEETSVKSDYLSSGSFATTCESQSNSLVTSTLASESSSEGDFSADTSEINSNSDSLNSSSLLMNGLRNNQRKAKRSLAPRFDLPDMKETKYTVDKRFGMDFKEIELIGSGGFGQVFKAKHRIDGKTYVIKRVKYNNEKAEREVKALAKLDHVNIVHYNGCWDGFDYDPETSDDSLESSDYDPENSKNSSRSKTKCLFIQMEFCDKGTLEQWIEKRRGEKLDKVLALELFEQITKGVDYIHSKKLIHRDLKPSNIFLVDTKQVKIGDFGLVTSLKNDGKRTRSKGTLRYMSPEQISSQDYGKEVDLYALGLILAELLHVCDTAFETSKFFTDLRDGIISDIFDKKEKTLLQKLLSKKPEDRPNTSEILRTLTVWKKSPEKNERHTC
Chain of CSNK1G3 (Q9Y6M4 whole entry, looked up): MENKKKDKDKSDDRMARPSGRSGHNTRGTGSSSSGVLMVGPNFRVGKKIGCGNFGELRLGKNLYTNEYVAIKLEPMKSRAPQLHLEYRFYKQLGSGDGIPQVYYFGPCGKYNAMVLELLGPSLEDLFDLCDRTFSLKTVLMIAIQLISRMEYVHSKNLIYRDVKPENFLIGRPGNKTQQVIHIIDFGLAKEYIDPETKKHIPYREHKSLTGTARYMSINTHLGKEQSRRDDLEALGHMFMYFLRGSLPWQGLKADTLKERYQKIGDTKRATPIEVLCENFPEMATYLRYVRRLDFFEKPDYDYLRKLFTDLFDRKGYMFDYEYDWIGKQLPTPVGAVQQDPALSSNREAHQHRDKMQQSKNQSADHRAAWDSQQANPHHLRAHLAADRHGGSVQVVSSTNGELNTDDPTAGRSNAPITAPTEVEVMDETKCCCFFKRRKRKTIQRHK
Chain of ACVRL1 (P37023 whole entry): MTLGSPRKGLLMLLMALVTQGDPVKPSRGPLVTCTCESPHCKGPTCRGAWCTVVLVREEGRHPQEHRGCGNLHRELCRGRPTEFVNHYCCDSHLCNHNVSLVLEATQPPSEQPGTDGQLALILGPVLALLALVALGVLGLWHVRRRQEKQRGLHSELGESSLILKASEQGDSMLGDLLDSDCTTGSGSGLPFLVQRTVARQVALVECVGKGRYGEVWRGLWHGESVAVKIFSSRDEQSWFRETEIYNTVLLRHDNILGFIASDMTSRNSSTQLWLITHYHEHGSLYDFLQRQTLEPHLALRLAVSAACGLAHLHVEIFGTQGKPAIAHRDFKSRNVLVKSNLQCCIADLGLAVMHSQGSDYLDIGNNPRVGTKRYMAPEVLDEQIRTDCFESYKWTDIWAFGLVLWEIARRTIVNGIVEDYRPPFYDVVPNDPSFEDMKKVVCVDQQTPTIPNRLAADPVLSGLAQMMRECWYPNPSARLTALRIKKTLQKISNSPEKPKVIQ
Chain of EIF2AK3 (Q9NZJ5 whole entry): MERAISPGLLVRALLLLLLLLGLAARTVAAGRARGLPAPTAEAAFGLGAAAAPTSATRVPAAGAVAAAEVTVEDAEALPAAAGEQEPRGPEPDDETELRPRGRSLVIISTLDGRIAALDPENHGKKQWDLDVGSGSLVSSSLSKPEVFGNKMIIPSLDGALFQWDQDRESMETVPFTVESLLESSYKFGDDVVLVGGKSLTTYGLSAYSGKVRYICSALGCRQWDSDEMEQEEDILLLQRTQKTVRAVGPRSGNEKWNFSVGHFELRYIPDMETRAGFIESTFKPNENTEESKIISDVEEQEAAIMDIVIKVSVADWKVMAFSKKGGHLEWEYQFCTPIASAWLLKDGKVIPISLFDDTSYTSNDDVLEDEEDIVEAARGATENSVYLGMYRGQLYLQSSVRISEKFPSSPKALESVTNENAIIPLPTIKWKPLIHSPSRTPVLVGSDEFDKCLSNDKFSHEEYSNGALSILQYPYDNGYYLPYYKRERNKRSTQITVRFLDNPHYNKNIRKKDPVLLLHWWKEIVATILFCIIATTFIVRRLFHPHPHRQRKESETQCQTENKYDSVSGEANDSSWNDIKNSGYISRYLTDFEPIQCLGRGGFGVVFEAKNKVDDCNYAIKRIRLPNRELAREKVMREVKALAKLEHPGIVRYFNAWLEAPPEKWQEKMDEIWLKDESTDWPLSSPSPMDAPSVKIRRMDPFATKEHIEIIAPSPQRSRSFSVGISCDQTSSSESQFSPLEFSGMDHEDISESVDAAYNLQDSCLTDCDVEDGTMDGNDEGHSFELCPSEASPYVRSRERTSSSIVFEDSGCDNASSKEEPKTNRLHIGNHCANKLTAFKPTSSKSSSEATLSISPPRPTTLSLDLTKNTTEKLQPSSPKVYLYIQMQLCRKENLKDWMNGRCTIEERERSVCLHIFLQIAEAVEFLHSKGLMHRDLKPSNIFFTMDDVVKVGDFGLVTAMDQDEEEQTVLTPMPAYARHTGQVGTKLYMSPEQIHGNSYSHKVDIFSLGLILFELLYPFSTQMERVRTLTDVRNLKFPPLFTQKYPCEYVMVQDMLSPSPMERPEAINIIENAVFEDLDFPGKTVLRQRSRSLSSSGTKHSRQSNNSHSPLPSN
Chain of LCK (P06239 whole entry, looked up): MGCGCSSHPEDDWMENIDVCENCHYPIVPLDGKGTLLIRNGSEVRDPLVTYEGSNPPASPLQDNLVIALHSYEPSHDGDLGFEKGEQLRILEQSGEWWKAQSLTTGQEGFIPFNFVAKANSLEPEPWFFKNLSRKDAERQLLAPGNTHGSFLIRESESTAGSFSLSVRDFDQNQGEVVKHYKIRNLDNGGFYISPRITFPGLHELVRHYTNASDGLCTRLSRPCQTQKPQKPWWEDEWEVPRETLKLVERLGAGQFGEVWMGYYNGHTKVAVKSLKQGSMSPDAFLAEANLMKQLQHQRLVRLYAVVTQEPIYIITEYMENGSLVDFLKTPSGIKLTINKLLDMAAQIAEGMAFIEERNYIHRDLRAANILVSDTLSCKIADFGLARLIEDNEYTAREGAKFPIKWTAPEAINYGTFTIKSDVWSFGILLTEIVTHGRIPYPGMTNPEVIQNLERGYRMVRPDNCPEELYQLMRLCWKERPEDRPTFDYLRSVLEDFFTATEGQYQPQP
Chain of MAP4K1 (Q92918 whole entry, looked up): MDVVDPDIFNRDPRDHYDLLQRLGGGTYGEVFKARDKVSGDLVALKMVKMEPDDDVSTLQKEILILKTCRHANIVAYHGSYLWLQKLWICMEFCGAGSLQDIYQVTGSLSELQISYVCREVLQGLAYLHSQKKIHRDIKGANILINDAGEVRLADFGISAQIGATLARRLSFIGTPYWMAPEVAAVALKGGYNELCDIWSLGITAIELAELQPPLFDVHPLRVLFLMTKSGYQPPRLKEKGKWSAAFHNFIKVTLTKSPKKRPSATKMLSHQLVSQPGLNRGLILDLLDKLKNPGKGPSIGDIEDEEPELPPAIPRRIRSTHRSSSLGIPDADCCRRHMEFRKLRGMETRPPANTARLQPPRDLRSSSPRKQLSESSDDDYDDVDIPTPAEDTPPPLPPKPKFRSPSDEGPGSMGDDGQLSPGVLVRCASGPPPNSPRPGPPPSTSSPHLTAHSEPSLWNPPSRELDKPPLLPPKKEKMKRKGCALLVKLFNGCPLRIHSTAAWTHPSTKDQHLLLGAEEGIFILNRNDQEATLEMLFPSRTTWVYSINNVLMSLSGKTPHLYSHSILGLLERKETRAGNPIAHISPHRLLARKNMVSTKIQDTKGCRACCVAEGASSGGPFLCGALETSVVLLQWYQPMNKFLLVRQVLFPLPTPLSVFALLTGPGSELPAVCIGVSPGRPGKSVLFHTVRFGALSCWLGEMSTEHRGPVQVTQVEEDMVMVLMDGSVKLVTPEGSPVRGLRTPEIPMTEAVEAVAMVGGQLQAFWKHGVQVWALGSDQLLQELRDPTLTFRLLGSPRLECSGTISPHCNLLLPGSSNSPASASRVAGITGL

COc1ccc(-c2ccc3c(N4CCOC[C@@H]4C)nc(N4CCOC[C@@H]4C)nc3n2)cc1CO [AZD8055]
< 6: CSNK1G2

CCNC(=O)Nc1ccc(-c2nc(N3CCOC[C@@H]3C)c3c(n2)C(C)(C)S(=O)(=O)C3)cc1 [CZ415]
< 6: ACVRL1 | BRD4 | CAMK1D | CSNK1G3 | DDR2 | DYRK1B | DYRK2 | EIF2AK2 | EIF2AK3 | LCK | MAP4K1 | PAK6 | PRKACB | RIPK4 | RNASEL | WNK1

— the supplement of paper PMC6315032
